How the values were obtained:
[1] = target: T1, Fuc-TV (Homo sapiens, UniProt Q11128); experiment: Fucosyltransferase assay, extracts of COS-1 cells transfected with pCDNA1-Fuc-TV; format: biochemical; settings: for utilization as acceptor substrate by Fuc-TV (in words): extracts of COS-1 cells transfected with pCDNA1-Fuc-TV; for Relative Activity (%) with Fuc-TV: relative product formation rate, N-acetyllactosamine = 100, acceptor 20 mM (2-fucosyllactose 5 mM), GDP-[14C]fucose 3 μM, transfected COS-1 cell extract
T1 construct: a 1.94 kb Earl-Xbal fragment containing the entire open reading frame was cloned into a mammalian expression vector; expressed in transfected cells; host or cells: COS-1 cells, transient transfection, 1% Triton X-100 extract
T1 sequence (Q11128 1-374): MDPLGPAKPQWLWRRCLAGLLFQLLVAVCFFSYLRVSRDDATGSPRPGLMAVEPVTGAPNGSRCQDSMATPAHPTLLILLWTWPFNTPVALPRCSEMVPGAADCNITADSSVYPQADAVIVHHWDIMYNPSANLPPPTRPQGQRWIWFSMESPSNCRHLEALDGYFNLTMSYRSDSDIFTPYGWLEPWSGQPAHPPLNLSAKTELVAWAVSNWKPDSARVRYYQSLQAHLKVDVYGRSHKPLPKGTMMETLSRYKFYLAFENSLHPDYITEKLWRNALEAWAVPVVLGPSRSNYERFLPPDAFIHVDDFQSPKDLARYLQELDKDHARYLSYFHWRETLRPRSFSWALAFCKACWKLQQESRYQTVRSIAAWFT
Experimental: Cell extracts containing 1% Triton X-100 were prepared from transfected COS-1 cells. Fucosyltransferase assays were performed in a total volume of 20 μl, and contained 25 mM sodium cacodylate, pH6.2, 5 mM ATP, 10 mM L-fucose, 10 mM MnCl2, 3 μM GDP-^14C-fucose, and 5 μl of cell extract. Acceptor substrates were added to a final concentration of 20 mM. Reactions were incubated at 37° C. for 1 hour and terminated by addition of 20 μl ethanol, followed by addition of 600 μl of distilled water. An aliquot of each reaction (50 μl) was subjected to scintillation counting to determine total radioactivity in the reaction. Another aliquot (200 μl) was applied to a column containing 400 μl of Dowex 1X2-400, formate form. The flow through fraction, and […] of a subsequent water elution, were collected and pooled, and an aliquot was subjected to scintillation counting to quantitate incorporation of radioactive fucose into neutral product.
(§1) Table 2 presents the relative product formation rates obtained with low molecular weight acceptor substrates using cell extracts containing recombinant human α(1,3)fucosyltransferases expressed in transfected COS-1 cells, as described in the preceding sections. Fucosyltransferase assays were performed as described in detail in Lowe et al, J. Biol. Chem., (1991), 266:17467-17477; Weston et al, J. Biol. Chem. (1992), 267:4152-4160; and Kukowska-Latallo et al, Genes. Devel., (1990), 4:1288-1303. For each enzyme, the same extract was used, with saturating amounts of each acceptor oligosaccharide (20 mM, except for 2′-fucosylactose which was used at 5 mM), and GDP-^14C]fucose was present at 3 μM. Reaction times and enzyme amounts were adjusted to ensure a linear rate of product formation (less than 15% of the GDP-fucose substrate consumed). Products were separated by column chromatography and quantitated by liquid scintillation counting, and their structures were confirmed by high performance liquid chromatography, as described in Lowe et al, J. Biol. Chem., (1991), 266:17467-17477; Weston et al, J. Biol. Chem. (1992), 267:4152-4160; and Kukowska-Latallo et al, Genes. Devel., (1990), 4:1288-1303.

[2] = target: T2, Fuc-TVI (Homo sapiens, UniProt P51993); experiment: Fucosyltransferase assay, extracts of COS-1 cells transfected with pCDNA1-Fuc-TVI; format: biochemical; settings: for utilization as acceptor substrate by Fuc-TVI (in words): extracts of COS-1 cells transfected with pCDNA1-Fuc-TVI; for Relative Activity (%) with Fuc-TVI: relative product formation rate, N-acetyllactosamine = 100, acceptor 20 mM (2-fucosyllactose 5 mM), GDP-[14C]fucose 3 μM, transfected COS-1 cell extract
T2 construct: a 1.2 kb fragment containing the entire open reading frame was generated by the polymerase chain reaction; expressed in transfected cells; host or cells: COS-1 cells, transient transfection, 1% Triton X-100 extract
T2 sequence (P51993 1-359): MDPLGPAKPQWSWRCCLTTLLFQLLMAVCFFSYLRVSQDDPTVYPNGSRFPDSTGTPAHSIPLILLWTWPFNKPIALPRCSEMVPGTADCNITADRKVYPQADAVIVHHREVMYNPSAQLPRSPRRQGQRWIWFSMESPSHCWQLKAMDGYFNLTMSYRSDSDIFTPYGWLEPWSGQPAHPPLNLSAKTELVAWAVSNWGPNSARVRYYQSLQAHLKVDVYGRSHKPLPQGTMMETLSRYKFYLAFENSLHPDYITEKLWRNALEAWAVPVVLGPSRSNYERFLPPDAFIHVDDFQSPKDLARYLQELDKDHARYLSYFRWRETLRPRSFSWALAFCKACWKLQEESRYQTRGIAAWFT
Experimental: Cell extracts containing 1% Triton X-100 were prepared from transfected COS-1 cells, using procedures described previously (Kukowska-Latallo et al, Genes Devel., 4:1288-1303, 1990). Fucosyltransferase assays were performed in a total volume of 20 μl, and contained 50 mM sodium cacodylate, pH 6.2, 5 mM ATP, 10 mM fucose, 20 mM MnCl2, 3 μM GDP-^14C-fucose, and 5 μl (30 μg protein) of cell extract. Acceptor substrates were added to a final concentration of 20 mM. Reactions were incubated at 37° C. for 1 hour and terminated by addition of 20 μl ethanol, followed by addition of 600 μl of distilled water. An aliquot of each reaction (50 μl) was subjected to scintillation counting to determine total radioactivity in the reaction. Another aliquot (200 μl) was applied to a column containing 400 μl of Dowex 1X2-400, formate form (Rajan et al, J. Biol. Chem., 264:11158-11167, 1989). The flow through fraction, and […] of a subsequent water elution, were collected and pooled, and an aliquot was subjected to scintillation counting to quantitate incorporation of radioactive fucose into neutral product.
as §1

Compound | utilization as acceptor substrate by Fuc-TV (in words) [1] | Relative Activity (%) with Fuc-TV [1] [%] | utilization as acceptor substrate by Fuc-TVI (in words) [2] | Relative Activity (%) with Fuc-TVI [2] [%]
OC[C@H]1O[C@@H](O[C@H]2[C@H](O)[C@@H](O)C(O)O[C@@H]2CO)[C@H](O)[C@@H](O)[C@H]1O (some centres unmarked) [lactose] | substantially lower efficiencies | 11 | did not function as acceptor substrates | <1
CC(=O)N[C@@H]1[C@@H](O[C@@H]2O[C@H](CO)[C@H](O)[C@H](O)[C@H]2O)[C@H](O)[C@@H](CO)O[C@@H]1O [lacto-N-biose I] | low efficiency | 10 | not utilized | <1
Fucα(1,2)Galβ(1,4)Glc [2-fucosyllactose] | substantially lower efficiencies | 42 | did not function as acceptor substrates | <1
CC(=O)NC1C(O)OC(CO)C(OC2OC(CO)C(O)C(OC3(C(=O)O)CC(O)C(NC(C)=O)C(C(O)C(O)CO)O3)C2O)C1O (stereo not drawn) [α(2,3)sialyllactosamine, NeuAcα(2→3)Galβ(1→4)GlcNAc] | efficiently utilized | 115 | efficiently utilized | 110
CC(=O)N[C@H]1C(O)O[C@H](CO)[C@@H](O[C@@H]2O[C@H](CO)[C@H](O)[C@H](O)[C@H]2O)[C@@H]1O (some centres unmarked) [N-acetyllactosamine] | utilized | 100 | utilized | 100
